Assay results from US20250177422A1 (ZYLORION HEALTH INC., priority 2023, published 2025).

Columns and labels:
active neurons = assay: Neuronal activation in mice (number of active neurons); conditions: 21 days oral, co-crystal form A 3 mg/kg, aripiprazole 0.3 mg/kg, FIG. 7
Method: For immunohistochemistry sampling, EdU (5-Ethynyl-2′-deoxyuridine, Lumiprobe, 100 μg/g) was injected together with the drugs for the first 7 days. On the day following the 14-day treatment period, the brains of the mice were dissected for subsequent analyses, including immunohistochemistry and electrophysiology (E-phys).

BDNF = assay: Brain levels of BDNF in mice after acute treatment; type: in vivo; conditions: 1 hour after oral administration, Co-crystal Form A 3 mg/kg, Aripiprazole 0.3 mg/kg, FIG. 5
mice = assay: Cognitive performance, the Y-maze; type: in vivo; conditions: oral, 15 days, FIG. 4
Method: Cognitive performance, the Y-maze. Mice will be acclimated to a Y-maze having two familiar arms and one unfamiliar arm 1 day prior to testing (i.e., day-1). One the days of testing mice will be placed in the Y-maze and allowed to freely explore for 5 minutes. Behaviours scored will include total locomotion, time spent in each arm, number of arm entries, and correct alternations between the novel arm and familiar arms. A pro-cognitive effect will be reflected by increased time spent in the novel arm and increased percent correct alternations.

[1] = system: neuronal progenitor/stem cell levels in mice brain; assay: Neuronal progenitor/stem cell levels in mice brain (immunohistochemistry); type: in vivo; conditions: 14 days oral; co-crystal form A 3 mg/kg, aripiprazole 0.3 mg/kg; FIG. 6

O=C1CCc2ccc(OCCCCN3CCN(c4cccc(Cl)c4Cl)CC3)cc2N1 [aripiprazole]
change in neuronal activation (number of active neurons) (active neurons): significant increase | brain levels of BDNF (BDNF): significant increase in brain levels of BDNF | short-term and working memory (Y-maze), compared to control (mice): smaller but significant increase | neuronal progenitor/stem cell levels in mice brain [1]: no significant effect
